The target of the test is T1, human PPARgamma (Homo sapiens, UniProt P37231).
T1 construct: amino acids I152-Y475; expressed in transfected cells; host or cells: HEK cells (transient transfection of pcDNA3-GAL4-humanPPARgammaLBD)
T1 sequence (P37231 182-477 isoform P37231-2 limits assumed): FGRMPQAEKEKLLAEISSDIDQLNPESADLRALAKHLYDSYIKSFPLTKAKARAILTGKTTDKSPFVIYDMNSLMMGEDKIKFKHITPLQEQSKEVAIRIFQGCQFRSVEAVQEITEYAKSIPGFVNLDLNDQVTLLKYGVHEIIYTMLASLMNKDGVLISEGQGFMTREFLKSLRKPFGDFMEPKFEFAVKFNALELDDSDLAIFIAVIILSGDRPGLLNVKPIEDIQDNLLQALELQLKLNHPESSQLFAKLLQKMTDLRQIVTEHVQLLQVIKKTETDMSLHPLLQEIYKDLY
Description: Cellular PPARgamma assay (luciferase reporter, transiently transfected HEK cells). The conditions noted are these: GAL4-humanPPARgammaLBD. It is filed as cell-based. An excerpt: A transient transfection system is employed to determine the cellular PPARgamma activity of PPAR agonists. It is based on the use of a luciferase reporter plasmid (pGL3basic-5×GAL4-TK) and of a PPARgamma expression plasmid (pcDNA3-GAL4-humanPPARgammaLBD). Both plasmids are transiently transfected into human embryonic kidney cells (HEK cells). There is then expression in these cells of the fusion protein GAL4-humanPPARgammaLBD which binds to the GAL4 binding sites of the reporter plasmid. In the presence of a PPARgamma-active ligand, the activated fusion protein GAL4-humanPPARgammaLBD induces expression of the luciferase reporter gene, which can be detected in the form of a chemiluminescence signal after addition of a luciferase substrate. As a difference from the stably transfected PPARalpha reporter cell line, in the cellular PPARgamma assay the two components (luciferase reporter plasmid and PPARgamma expression plasmid) are transiently transfected into HEK cells because stable and permanent expression of the PPARgamma fusion protein is cytotoxic.
The luciferase reporter plasmid pGL3basic-5×GAL4-TK is based on the vector pGL3basic from Promega. The reporter plasmid is prepared by cloning five binding sites of the yeast transcription factor GAL4 (each binding site with the sequence 5′-CTCGGAGGACAGTACTCCG-3′), together with a 160 bp-long thymidine kinase promoter section (Genbank Accession #AF027128) 5′-upstream into pGL3basic. 3′-downstream of the thymidine kinase promoter is the complete luciferase gene from Photinus pyralis (Genbank Accession #M15077) which is already a constituent of the plasmid pGL3basic used. The cloning and sequencing of the reporter plasmid pGL3basic-5×GAL4-TK took place in analogy to the description in Sambrook J. et. al. (Molecular cloning, Cold Spring Harbor Laboratory Press, 1989).
The PPARgamma expression plasmid pcDNA3-GAL4-humanPPARgammaLBD was prepared by first cloning the cDNA coding for amino acids 1-147 of the yeast transcription factor GAL4 (Genbank Accession #P04386) into the plasmid pcDNA3 (from Invitrogen) 3′-downstream of the cytomegalovirus promoter. Subsequently, the cDNA of the ligand-binding domain (LBD) of the human PPARgamma receptor (amino acids I152-Y475; Accession #g1480099) 3′-downstream of the GAL4 DNA binding domain. Cloning and sequencing of the PPARgamma expression plasmid pcDNA3-GAL4-humanPPARgammaLBD again took place in analogy to the description in Sambrook J. et. al. (Molecular cloning, Cold Spring Harbor Laboratory Press, 1989). Besides the luciferase reporter plasmid pGL3basic-5×GAL4-TK and the PPARgamma expression plasmid pcDNA3-GAL4-humanPPARgammaLBD, also used for the cellular PPARgamma assay are the reference plasmid pRL-CMV (from Promega) and the plasmid pBluescript SK(+) from Stratagene. All four plasmids were prepared using a plasmid preparation kit from Qiagen, which ensured a plasmid quality with a minimal endotoxin content, before transfection into HEK cells.
The activity of PPARgamma agonists is determined in a 4-day assay which is described below. Before the transfection, HEK cells are cultivated in DMEM (#41965-039, Invitrogen) which is mixed with the following additions: 10% FCS (#16000-044, Invitrogen), 1% penicillin-streptomycin solution (#15140-122, Invitrogen) and 2 mM L-glutamine (#25030-024, Invitrogen).
Firstly, solution A, a transfection mixture which contains all four plasmids previously described in addition to DMEM, is prepared. The following amounts are used to make up 3 ml of solution A for each 96 well microtiter plate for an assay: 2622 μl of antibiotic- and serum-free DMEM (#41965-039, Invitrogen), 100 μl of reference plasmid pRL-CMV (1 ng/μl), 100 μl of luciferase reporter plasmid pGL3basic-5×GAL4-TK (10 ng/μl), 100 μl of PPARgamma expression plasmid pcDNA3-GAL4-humanPPARgammaLBD (100 ng/μl) and 78 μl of plasmid pBluescript SK(+) (500 ng/μl). […]

By EC50 is commonly meant the concentration at which the effect is half-maximal. Read a high EC50 as a need for much substance. Compound `CCOc1cc(C(F)(F)F)ccc1C(=O)NCC(C)c1ccc(S(=O)(=O)Nc2nnc(C(C)C)s2)cc1` (racemic) [Example 43, 2-Ethoxy-N-{2-[4-(5-isopropyl-[1,3,4]thiadiazol-2-ylsulfamoyl)-phenyl]-propyl}-4-trifluoromethyl-benzamide] registered a 50% effective concentration (EC50) of 90 nM.
For `CCOc1cc(C(F)(F)F)ccc1C(=O)NCC(C)c1ccc(S(=O)(=O)Nc2nnc(C(C)C)s2)cc1` (single isomer, unassigned) [Example 43a] the value was 70 nM; for `CCOc1cc(C(F)(F)F)ccc1C(=O)NCC(C)c1ccc(S(=O)(=O)Nc2nnc(C(C)C)s2)cc1` (single isomer, unassigned) [Example 43b], 70 nM; for `CCOc1cc(C(F)(F)F)ccc1C(=O)NCC(CC)c1ccc(S(=O)(=O)Nc2nnc(C(C)C)s2)cc1` (single isomer, unassigned) [Example 44a], 30 nM.
`CCOc1cc(C(F)(F)F)ccc1C(=O)NCC(CC)c1ccc(S(=O)(=O)Nc2nnc(C(C)C)s2)cc1` (single isomer, unassigned) [Example 44b] showed a half-maximal effective concentration (EC50) of 10 nM.
Turning to `COc1cc(C(F)(F)F)ccc1C(=O)NCCc1ccc(S(=O)(=O)Nc2nnc(C(C)C)s2)cc1` [Example 1, N-{2-[4-(5-Isopropyl-[1,3,4]thiadiazol-2-ylsulfamoyl)-phenyl]-ethyl}-2-methoxy-4-trifluoromethyl-benzamide], the EC50 was determined as 380 nM.
With `COc1ccc(C(C)(C)C)cc1C(=O)NCCc1ccc(S(=O)(=O)Nc2nnc(C(C)C)s2)cc1` [Example 2, 5-tert-Butyl-N-{2-[4-(5-isopropyl-[1,3,4]thiadiazol-2-ylsulfamoyl)-phenyl]-ethyl}-2-methoxy-benzamide] the figure was 180 nM; with `COc1ccc(C(=O)NCCc2ccc(S(=O)(=O)Nc3nnc(C(C)C)s3)cc2)c(OC)n1` [Example 5, N-{2-[4-(5-Isopropyl-[1,3,4]thiadiazol-2-ylsulfamoyl)-phenyl]-ethyl}-2,6-dimethoxy-nicotinamide], 1110 nM; with `CC(C)c1nnc(NS(=O)(=O)c2ccc(CNC(=O)c3ccc(C(F)(F)F)cc3)cc2)s1` [Example 24, N-[4-(5-Isopropyl-[1,3,4]thiadiazol-2-ylsulfamoyl)-benzyl]-4-trifluoromethyl-benzamide], 1530 nM.
As to `Cc1ccc(Cl)cc1C(=O)NCCc1ccc(S(=O)(=O)Nc2nnc(-c3ccccc3)s2)cc1` [Example 32, 5-Chloro-2-methyl-N-{2-[4-(5-phenyl-[1,3,4]thiadiazol-2-ylsulfamoyl)-phenyl]-ethyl}-benzamide], the midpoint of the response, the EC50, lay at 4870 nM.
For `CC(C)(C)c1nnc(NS(=O)(=O)c2ccc(CCNC(=O)c3cc(Cl)ccc3Cl)cc2)s1` [Example 35, N-{2-[4-(5-tert-Butyl-[1,3,4]thiadiazol-2-ylsulfamoyl)-phenyl]-ethyl}-2,5-dichloro-benzamide] the value was 270 nM.
Take `Cc1cc(Br)c(C(=O)NCCc2ccc(S(=O)(=O)Nc3nnc(C(C)C)s3)cc2)s1` [Example 47, 3-Bromo-5-methyl-thiophene-2-carboxylic acid {2-[4-(5-isopropyl-[1,3,4]thiadiazol-2-ylsulfamoyl)-phenyl]-ethyl}-amide]: the 50% effective concentration (EC50) came to 1870 nM.

These data come from patent US7858647B2, “N-[1,3,4]-thiadiazol-2-yl-benzene sulfonamides, pharmaceutical compositions thereof and methods for their therapeutic use” (Sanofi-Aventis, priority 2005, dated 2010).
